In US8785471B2, “Pharmaceutical composition containing ferulic acid and matrine compounds, the preparation and the use thereof” (Qingdao Qiyuan Bio-Technologies Co., Ltd., priority 2008, dated 2014):
Marks after values point to notes of the source that are not given here.

Key:
[1] = tested on: AChE activity in cortex tissue and blood; details: model rats, intragastric 50 μg/kg, 7 days; mean ± SD
Description: Animal grouping, modeling and administration: 57 female Wistar rats (15 month old, 300-450 g, from animal center of Qingdao Institute for Drug Control, fed under normal conditions and natural light with unlimited drink and food) were randomly separated into 6 groups. Rats in normal control group were intraperitoneal injected with physiological saline for 6 weeks and injected physiological saline into the meynert nucleus basalis. Rats in modeling control group were injected intraperitoneally with D-galactose (48 mg/kg/d) for 6 weeks and injected with ibotenic acid into the meynert nucleus basalis. […] The rats in the normal and modeling control groups were intragastrically administrated with physiological saline for consecutive 7 days. 1 hour after the last administration, the learning ability of all the rats; was evaluated. Then, the rats were anesthetized with Pentobarbital. 5 ml blood was collected from abdominal aorta. Immediately the cortex tissue was collected and homogenated with physiological saline into 10% (WN). The AChE activity in cortex tissue and blood was measured according to the reagent kit instructions. • 3. […] The shocked times (mistakes) within 5 minutes were recorded as a reference for the learning ability of the rats. […] The latency time for the first jump was recorded as a reference for the memory ability. The shocked times (mistakes) within 5 minutes were also recorded. […]

rats = assay: Alzheimer's disease model rats, learning and memorizing ability in jumping tests; type: in vivo; details: intragastric 50 μg/kg, 7 days, mean ± SD
Description: Animal grouping, modeling and administration: 57 female Wistar rats (15 month old, 300-450 g, from animal center of Qingdao Institute for Drug Control, fed under normal conditions and natural light with unlimited drink and food) were randomly separated into 6 groups. Rats in normal control group were intraperitoneal injected with physiological saline for 6 weeks and injected physiological saline into the meynert nucleus basalis. Rats in modeling control group were injected intraperitoneally with D-galactose (48 mg/kg/d) for 6 weeks and injected with ibotenic acid into the meynert nucleus basalis. […] The rats in the normal and modeling control groups were intragastrically administrated with physiological saline for consecutive 7 days. 1 hour after the last administration, the learning ability of all the rats; was evaluated. Then, the rats were anesthetized with Pentobarbital. 5 ml blood was collected from abdominal aorta. Immediately the cortex tissue was collected and homogenated with physiological saline into 10% (WN). The AChE activity in cortex tissue and blood was measured according to the reagent kit instructions. • 3. Measurement: testing the memory ability of rats: the rats were placed in an electric box with an escaping platform for 3 minutes to get used to the new environments. The box was then connected to 50V AC. Upon being shocked, the rats can escape the electricity by jumping onto the platform. The shocked times (mistakes) within 5 minutes were recorded as a reference for the learning ability of the rats. After 24 hours, the rats were placed directly on the platform. The latency time for the first jump was recorded as a reference for the memory ability. The shocked times (mistakes) within 5 minutes were also recorded. The latency time of over 5 minutes was considered as 5 minutes.
T testing method was used to evaluate the difference within different groups, and the difference was statistically significant when P<0.05. • 4. […] P represents statistic difference. *P<0.05 means statistically obvious difference, **P<0.01 statistically significant difference.

With C/C=C1\[C@H]2C=C(C)C[C@]1(N)c1ccc(=O)[nH]c1C2 [Huperzine A, huperzine A] the “Blood TchE” value [1] was 48 ± 35* mmol/L, the “Cortex TchE” value [1] was 2.0 ± 0.6* μmol/g and the Latency (rats; after 24 hours) was 135 ± 55* s. The “Mistakes within 5 min” value (rats) was 4 ± 2.3* and the “Mistakes within 5 min after 24 hours” value (rats) was 2 ± 1.6*.
